Measured values as given in ChEMBL document CHEMBL1201862, “PubChem BioAssay data set” (2004).
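Exposure lasted 48 hours, with cells grown in 96-well plates and compounds tested at five concentrations. The concentration for 50% growth inhibition is given as GI50.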 Active and inactive are the calls of the source. Cut-off read from the data, not from the text of the source: active = GI50 up to about 1.1 µM and inactive = higher.

How the values were obtained:
Experiment in all cases: DTP human tumour cell line panel, 48 h
786-0 = tested on: 786-0
A549 = tested on: A549
ACHN = tested on: ACHN
BT-549 = tested on: BT-549
CAKI-1 = tested on: CAKI-1
CCRF-CEM = tested on: CCRF-CEM
COLO 205 = tested on: COLO 205
DU-145 = tested on: DU-145
EKVX = tested on: EKVX
HCC 2998 = tested on: HCC 2998
HCT-116 = tested on: HCT-116
HCT-15 = tested on: HCT-15
HL-60 = tested on: HL-60
HOP-62 = tested on: HOP-62
HOP-92 = tested on: HOP-92
HT-29 = tested on: HT-29
Hs-578T = tested on: Hs-578T
IGROV-1 = tested on: IGROV-1
K562 = tested on: K562
KM12 = tested on: KM12
M14 = tested on: M14
MCF7 = tested on: MCF7
MDA-MB-231 = tested on: MDA-MB-231
MDA-MB-435 = tested on: MDA-MB-435
MDA-N = tested on: MDA-N
MOLT-4 = tested on: MOLT-4
Malme-3M = tested on: Malme-3M
NCI-H226 = tested on: NCI-H226
NCI-H23 = tested on: NCI-H23
NCI-H460 = tested on: NCI-H460
NCI-H522 = tested on: NCI-H522
NCI/ADR-RES = tested on: NCI/ADR-RES
OVCAR-3 = tested on: OVCAR-3
OVCAR-4 = tested on: OVCAR-4
OVCAR-5 = tested on: OVCAR-5
OVCAR-8 = tested on: OVCAR-8
PC-3 = tested on: PC-3
RPMI-8226 = tested on: RPMI-8226
RXF 393 = tested on: RXF 393
SF-268 = tested on: SF-268
SF-295 = tested on: SF-295
SF-539 = tested on: SF-539
SK-MEL-28 = tested on: SK-MEL-28
SK-MEL-2 = tested on: SK-MEL-2
SK-MEL-5 = tested on: SK-MEL-5
SK-OV-3 = tested on: SK-OV-3
SN12C = tested on: SN12C
SNB-19 = tested on: SNB-19
SR = tested on: SR
SW-620 = tested on: SW-620
T47D = tested on: T47D
TK-10 = tested on: TK-10
U-251 = tested on: U-251
UACC-257 = tested on: UACC-257
UACC-62 = tested on: UACC-62
UO-31 = tested on: UO-31
A498 = tested on: A498
LOX IMVI = tested on: LOX IMVI
SNB-75 = tested on: SNB-75

## O=S(=O)(O)c1ccc2c(/N=N/c3ccc(/N=N/c4ccccc4)cc3)c(O)c(S(=O)(=O)O)cc2c1
786-0
  GI50: > 100 µM (inactive)
A549
  GI50: > 100 µM (inactive)
ACHN
  GI50: > 100 µM (inactive)
BT-549
  GI50: > 100 µM (inactive)
CAKI-1
  GI50: > 100 µM (inactive)
CCRF-CEM
  GI50: > 100 µM (inactive)
COLO 205
  GI50: > 100 µM (inactive)
DU-145
  GI50: > 100 µM (inactive)
EKVX
  GI50: > 100 µM (inactive)
HCC 2998
  GI50: > 100 µM (inactive)
HCT-116
  GI50: 50.1 µM (inactive)
HCT-15
  GI50: > 100 µM
HL-60
  GI50: > 100 µM (inactive)
HOP-62
  GI50: > 100 µM (inactive)
HOP-92
  GI50: > 100 µM (inactive)
HT-29
  GI50: > 100 µM (inactive)
Hs-578T
  GI50: > 100 µM (inactive)
IGROV-1
  GI50: > 100 µM (inactive)
K562
  GI50: > 100 µM (inactive)
KM12
  GI50: > 100 µM (inactive)
M14
  GI50: > 100 µM (inactive)
MCF7
  GI50: > 100 µM (inactive)
MDA-MB-231
  GI50: > 100 µM (inactive)
MDA-MB-435
  GI50: > 100 µM (inactive)
MDA-N
  GI50: > 100 µM (inactive)
MOLT-4
  GI50: > 100 µM (inactive)
Malme-3M
  GI50: > 100 µM (inactive)
NCI-H226
  GI50: > 100 µM (inactive)
NCI-H23
  GI50: > 100 µM (inactive)
NCI-H460
  GI50: > 100 µM (inactive)
NCI-H522
  GI50: > 100 µM (inactive)
NCI/ADR-RES
  GI50: > 100 µM (inactive)
OVCAR-3
  GI50: > 100 µM (inactive)
OVCAR-4
  GI50: > 100 µM (inactive)
OVCAR-5
  GI50: > 100 µM (inactive)
OVCAR-8
  GI50: > 100 µM (inactive)
PC-3
  GI50: > 100 µM (inactive)
RPMI-8226
  GI50: > 100 µM (inactive)
RXF 393
  GI50: > 100 µM (inactive)
SF-268
  GI50: > 100 µM (inactive)
SF-295
  GI50: > 100 µM (inactive)
SF-539
  GI50: > 100 µM (inactive)
SK-MEL-28
  GI50: > 100 µM (inactive)
SK-MEL-2
  GI50: > 100 µM (inactive)
SK-MEL-5
  GI50: > 100 µM (inactive)
SK-OV-3
  GI50: > 100 µM (inactive)
SN12C
  GI50: > 100 µM (inactive)
SNB-19
  GI50: > 100 µM (inactive)
SR
  GI50: > 100 µM (inactive)
SW-620
  GI50: > 100 µM (inactive)
T47D
  GI50: > 100 µM (inactive)
TK-10
  GI50: > 100 µM (inactive)
U-251
  GI50: > 100 µM (inactive)
UACC-257
  GI50: > 100 µM (inactive)
UACC-62
  GI50: > 100 µM (inactive)
UO-31
  GI50: > 100 µM (inactive)

## O=C(O)CCC(=O)c1ccc[nH]1
786-0
  GI50: > 100 µM (inactive)
A498
  GI50: > 100 µM (inactive)
A549
  GI50: > 100 µM (inactive)
ACHN
  GI50: > 100 µM (inactive)
BT-549
  GI50: > 100 µM (inactive)
CAKI-1
  GI50: > 100 µM (inactive)
COLO 205
  GI50: > 100 µM (inactive)
DU-145
  GI50: > 100 µM (inactive)
EKVX
  GI50: > 100 µM (inactive)
HCT-116
  GI50: > 100 µM (inactive)
HCT-15
  GI50: > 100 µM
HOP-62
  GI50: > 100 µM (inactive)
HOP-92
  GI50: > 100 µM (inactive)
HT-29
  GI50: > 100 µM (inactive)
Hs-578T
  GI50: > 100 µM (inactive)
IGROV-1
  GI50: > 100 µM (inactive)
K562
  GI50: > 100 µM (inactive)
KM12
  GI50: > 100 µM (inactive)
LOX IMVI
  GI50: > 100 µM (inactive)
M14
  GI50: > 100 µM (inactive)
MCF7
  GI50: > 100 µM (inactive)
MDA-MB-231
  GI50: > 100 µM (inactive)
MDA-MB-435
  GI50: > 100 µM (inactive)
MDA-N
  GI50: > 100 µM (inactive)
MOLT-4
  GI50: > 100 µM (inactive)
Malme-3M
  GI50: > 100 µM (inactive)
NCI-H226
  GI50: 64 µM (inactive)
NCI-H23
  GI50: > 100 µM (inactive)
NCI-H460
  GI50: > 100 µM (inactive)
NCI-H522
  GI50: > 100 µM (inactive)
NCI/ADR-RES
  GI50: > 100 µM (inactive)
OVCAR-3
  GI50: > 100 µM (inactive)
OVCAR-4
  GI50: > 100 µM (inactive)
OVCAR-5
  GI50: > 100 µM (inactive)
OVCAR-8
  GI50: > 100 µM (inactive)
PC-3
  GI50: > 100 µM (inactive)
RPMI-8226
  GI50: > 100 µM (inactive)
RXF 393
  GI50: > 100 µM (inactive)
SF-268
  GI50: > 100 µM (inactive)
SF-295
  GI50: > 100 µM (inactive)
SF-539
  GI50: > 100 µM (inactive)
SK-MEL-2
  GI50: > 100 µM (inactive)
SK-MEL-5
  GI50: > 100 µM (inactive)
SK-OV-3
  GI50: > 100 µM (inactive)
SN12C
  GI50: 6.56 µM (inactive)
SNB-19
  GI50: > 100 µM (inactive)
SNB-75
  GI50: > 100 µM (inactive)
SR
  GI50: > 100 µM (inactive)
T47D
  GI50: > 100 µM (inactive)
TK-10
  GI50: > 100 µM (inactive)
U-251
  GI50: > 100 µM (inactive)
UACC-257
  GI50: 94 µM (inactive)
UACC-62
  GI50: > 100 µM (inactive)
UO-31
  GI50: > 100 µM (inactive)
